Key:
Tagia sp. = conditions: chronic/long-term; growth
Bibionidae = conditions: chronic/long-term
Oryctolagus sp. = conditions: reproduction developmental; body weight
Canidae = conditions: subchronic; duration: 90 days; oral; M/F; Dog Other; body weight
Apis mellifera = conditions: acute, mortality
Pimephales promelas = conditions: chronic/long-term; duration: 110 days; reproduction
Cyprinus carpio = conditions: acute; duration: 96 hours; mortality
Aphidius rhopalosiphi = test: LR50; higher = less toxic; conditions: not reported; mortality

Compound `CC[C@H]1CCC[C@H](O[C@H]2CC[C@H](N(C)C)[C@@H](C)O2)[C@@H](C)C(=O)C2=C[C@@H]3[C@@H](C=C(C)[C@@H]4C[C@@H](O[C@@H]5O[C@@H](C)[C@H](OC)[C@@H](OC)[C@H]5OC)C[C@@H]34)[C@@H]2CC(=O)O1.CC[C@H]1CCC[C@H](O[C@H]2CC[C@H](N(C)C)[C@@H](C)O2)[C@@H](C)C(=O)C2=C[C@@H]3[C@@H](C=C[C@@H]4C[C@@H](O[C@@H]5O[C@@H](C)[C@H](OC)[C@@H](OC)[C@H]5OC)C[C@@H]34)[C@@H]2CC(=O)O1` [Spinosad] has an NOEC (Tagia sp.) of 35.2 mg/kg, an NOEC (Bibionidae; duration: 25 days) of 0.62 µg/L and an NOEC (Bibionidae; duration: 28 days) of 0.0585 mg/kg. The LD50 (Anas platyrhynchos; acute, oral, unspecified, mortality) was over 2000 mg/kg-day, the NOAEL (Anas platyrhynchos; chronic/long-term) was 78.1 mg/kg-day and the LEL (Anas platyrhynchos; chronic/long-term, mortality) was 200 mg/kg-day. The NOAEL (Oryctolagus sp.) was 10 mg/kg-day, the NOAEL (Canidae) was 4.89 mg/kg-day and the LD50 (Apis mellifera; dermal) was 0.0036 µg/piece. For the same compound, the LD50 (Apis mellifera; oral, unspecified) was 0.057 µg/piece, the LD50 (Colinus virginianus; acute, oral, mortality) was over 2000 mg/kg-day and the NOAEL (Colinus virginianus; chronic) was 68.5 mg/kg-day. For the same compound, the LEL (Colinus virginianus; chronic, mortality) was 200 mg/kg-day, the LD50 (Rattus norvegicus; acute, oral, mortality) was over 2000 mg/kg-day and the NOAEL (Rattus norvegicus; chronic, duration: 2 years, oral, diet, M, Fischer 344, organ weight) was 2.4 mg/kg-day. The NOAEL (Rattus norvegicus; reproduction developmental, M/F, reproduction) was 10 mg/kg-day, the NOEC (Pimephales promelas) was 0.217 mg/L and the LC50 (Cyprinus carpio) was 4 µg/mL. It also gave an LR50 (Aphidius rhopalosiphi) of 0.371 g/ha.
